Data published in US4765972A (priority 1986, dated 1988).
pIC50: −log10 of the molar value.

What was measured:
[1] = test system: calf brain macromolecular components; test: Control irradiation of calf brain homogenate with ^3 H-vinblastine; assay type: binding; conditions: standard photolabelling conditions; 50 nM ^3 H-vinblastine
Method: The standard photolabelling mixture used contained 50 nM ^3 H-NABV (50.6 Ci/mmol), 4% dimethylsulfoxide, […] potassium phosphate buffer, pH 7.0, and 2 mg/ml of tissue homogenate or high speed pellet or supernatant fractions in a final volume of 0.05 ml in polyvinylchloride V-microtiter wells (Dynatech Labs, Inc., Alexandria, VA) in a 25° C. water bath. Photolabelling mixtures were incubated for 15 minutes at 25° C. before photolysis. Photoactivation was performed for 10-20 minutes with a UV light equipped with two 15 W self-filtering 302 nm lamps (Model xx-15, Ultra-Violet Products, Inc., San Gabriel, CA), placed 3.4 cm above the photolabelling mixture. […] In a control experiment, brain homogenate was irradiated in the presence of 50 nM ^3 H-vinblastine (10.7 Ci/mmol; Amersham Corp., Arlington Heights, IL). Photoactivated samples were immediately processed for SDS-PAGE or frozen at -70° C.
When homogenate was incubated with ^3 H-NABV in the absence of UV light for 30 minutes, no radioactivity was found in subsequent SDS-PAGE gel slices above the ambient background level, except for excess 3H-NABV which migrated near the tracking dye front. Similar results were obtained after photoactivating ^3 H-NABV in the absence of brain homogenate which was then added prior to performing SDS-PAGE and gel slice analysis.

tubulin [2] = test: Tubulin aggregation; assay type: biochemical; conditions: both drugs at similar concentrations
[3] = test system: MCF-7 human breast tumor cells; test: Ultrastructural alterations in MCF-7 cells; assay type: cell-based
tubulin [4] = test: Tubulin-dependent GTP hydrolysis; assay type: biochemical; conditions: both drugs at similar concentrations
[5] = test system: P388 murine leukemic cells; test: Growth inhibition of exponentially growing P388 cells; assay type: cell-based; conditions: Mus musculus, P388, 72 h
From the text: Thus, NABV is ideal for probing intracellular Vinca alkaloid interactions because it retains the known biochemical and pharmacological properties of this class of drugs.

P388 leukemic cells = test: Ultrastructural alterations in P388 cells; assay type: cell-based, murine
microtubule = test: In vitro microtubule assembly; assay type: biochemical; conditions: both drugs at similar concentrations

Structure (SMILES)	radiolabel incorporation into calf brain macromolecular components [1]	effect on tubulin aggregation (tubulin [2])	ultrastructural alterations (microtubular paracrystals, mitotic arrest, multinucleated cells) [3]	effect on tubulin-dependent GTP hydrolysis (tubulin [4])	pIC50 [5]	ultrastructural alterations (microtubular paracrystals, mitotic arrest, multinucleated cells) (P388 leukemic cells)	effect on in vitro microtubule assembly (microtubule)
CC[C@]1(O)C[C@@H]2CN(CCc3c([nH]c4ccccc34)[C@@](C(=O)OC)(c3cc4c(cc3OC)N(C)[C@H]3[C@@](O)(C(=O)OC)[C@H](OC(C)=O)[C@]5(CC)C=CCN6CC[C@]43[C@@H]65)C2)C1 [^3 H-vinblastine]	no radiolabel incorporation	–	–	–	–	–	–
CCC1(O)CC2CN(CCc3c([nH]c4ccccc34)C(C(=O)OC)(c3cc4c(cc3OC)N(C)C3C(O)(C(=O)NCCNC(=O)c5ccc(N=[N+]=[N-])cc5)C(O)C5(CC)C=CCN6CCC43C65)C2)C1 (stereo not drawn) [NABV, N-(p-azidobenzoyl)-N'-beta-aminoethylvindesine]	–	induce tubulin aggregation	resembles those caused by vinblastine	inhibit tubulin-dependent GTP hydrolysis	8.96	resembles those caused by vinblastine	inhibit in vitro microtubule assembly
